Structures are written as SMILES.

Common to all, as to format: functional, cell-based
Assay [1] deals with K562. Put plainly: Antiproliferative activity against human K562 cells after 72 hrs by MTT assay. The following applies: K562, 72 h. (Formazan colour is commonly taken as a measure of viable cells.)
Assay [2] has as its system MCF7. Briefly: Antiproliferative activity against human MCF7 cells after 72 hrs by MTT assay. The following applies: MCF7, 72 h.
The test system of assay [3] is HEL. Put plainly: Antiproliferative activity against HEL cells after 72 hrs by MTT assay. The following applies: Homo sapiens.
Assay [4] has as its system A549. Briefly: Antiproliferative activity against human A549 cells after 72 hrs by MTT assay. The following applies: A549, 72 h.
Assay [5] concerns HeLa. Put plainly: Antiproliferative activity against human HeLa cells after 72 hrs by MTT assay.

One may read the IC50 as the point on the concentration scale where inhibition reaches its midpoint. A higher IC50 goes with a need for much substance. With `C#CCOc1ccc(C(=O)C2=C3OC(C)(C)[C@@H](CC=C(C)C)C[C@@]34C[C@@H](CC=C(C)C)C(C)(C)[C@@](CC=C(C)C)(C2=O)C4=O)cc1O`, the 50% inhibitory concentration (IC50) in assay [1], in assay [2], in assay [3], in assay [4] and in assay [5] was more than 20 µM throughout.
Regarding `CCCCCC(=O)Oc1ccc(C(=O)C2=C3OC(C)(C)[C@@H](CC=C(C)C)C[C@@]34C[C@@H](CC=C(C)C)C(C)(C)[C@H]3CCC(C)(C)O[C@]34OC2=O)cc1OC(=O)CCCCC`, the IC50 in assay [1] is more than 20 µM; in assay [2], 16.6 µM; in assay [3] it was 19.9 µM; in assay [4], 19.2 µM; in assay [5], 15.4 µM.
Regarding `CCN(CC)CCCCCOc1ccc(C(=O)C2=C3OC(C)(C)[C@@H](CC=C(C)C)C[C@@]34C[C@@H](CC=C(C)C)C(C)(C)[C@@](CC=C(C)C)(C2=O)C4=O)cc1OCCCCCN(CC)CC`, the IC50 was more than 20 µM in assay [1]; 7.56 µM in assay [2]; more than 20 µM in assay [3]; 17.2 µM in assay [4]; 11.3 µM in assay [5].
With `C=CC(=O)Oc1cc(C(=O)C2=C3OC(C)(C)[C@@H](CC=C(C)C)C[C@@]34C[C@@H](CC=C(C)C)C(C)(C)[C@@](CC=C(C)C)(C2=O)C4=O)ccc1O`, the IC50 in assay [1] is 10.7 µM; in assay [2] it was more than 20 µM; in assay [3] it was 4.66 µM; in assay [4] it was more than 20 µM; in assay [5], 19.4 µM.
On to `CC(C)=CC[C@H]1C[C@@]23C[C@@H](CC=C(C)C)C(C)(C)[C@@](CC=C(C)C)(C(=O)C(C(=O)c4ccc(OCCCCCBr)c(OCCCCCBr)c4)=C2OC1(C)C)C3=O`, for which the IC50 in assay [1], in assay [2], in assay [3], in assay [4] and in assay [5] was more than 20 µM each time.
Regarding `C=CCOc1ccc(C(=O)C2=C3OC(C)(C)[C@@H](CC=C(C)C)C[C@@]34C[C@@H](CC=C(C)C)C(C)(C)[C@@](CC=C(C)C)(C2=O)C4=O)cc1OCC=C`, the IC50 was more than 20 µM in assay [1]; more than 20 µM in assay [2]; more than 20 µM in assay [3]; more than 20 µM in assay [4]; 15.8 µM in assay [5].
Take `CC(C)=CC[C@H]1C[C@@]23C[C@@H](CC=C(C)C)C(C)(C)[C@@](CC=C(C)C)(C(=O)C(C(=O)c4ccc(OCCCCCN5CCOCC5)c(O)c4)=C2OC1(C)C)C3=O`: the IC50 in assay [1] was more than 20 µM; in assay [2], 16 µM; in assay [3], more than 20 µM; in assay [4], more than 20 µM; in assay [5] it was more than 20 µM.
In the case of `CCCCCCCC(=O)Oc1ccc(C(=O)C2=C3OC(C)(C)[C@@H](CC=C(C)C)C[C@@]34C[C@@H](CC=C(C)C)C(C)(C)[C@H]3CCC(C)(C)O[C@]34OC2=O)cc1OC(=O)CCCCCCC`, the IC50 in assay [1], in assay [2], in assay [3], in assay [4] and in assay [5] was more than 20 µM throughout.
With `CC(C)=CC[C@H]1C[C@]23C[C@@H](CC=C(C)C)C(C)(C)[C@H]4CCC(C)(C)O[C@]42OC(=O)C(C(=O)c2ccc(OC(=O)c4ccc(F)cc4)c(OC(=O)c4ccc(F)cc4)c2)=C3OC1(C)C`, the IC50 is more than 20 µM in assay [1]; 16.8 µM in assay [2]; more than 20 µM in assay [3]; 11.7 µM in assay [4]; 11.9 µM in assay [5].
In the case of `CC(C)=CC[C@H]1C[C@@]23C[C@@H](CC=C(C)C)C(C)(C)[C@@](CC=C(C)C)(C(=O)C(C(=O)c4ccc(OS(=O)(=O)c5ccc(C)cc5)c(OS(=O)(=O)c5ccc(C)cc5)c4)=C2OC1(C)C)C3=O`, the IC50 in assay [1] is more than 20 µM; in assay [2], 3.15 µM; in assay [3] it was more than 20 µM; in assay [4], 9.53 µM; in assay [5], 6.25 µM.
Turning to `CCC(=O)Oc1ccc(C(=O)C2=C3OC(C)(C)[C@@H](CC=C(C)C)C[C@@]34C[C@@H](CC=C(C)C)C(C)(C)[C@H]3CCC(C)(C)O[C@]34OC2=O)cc1OC(=O)CC`, the IC50 was more than 20 µM in assay [1]; more than 20 µM in assay [2]; 9.52 µM in assay [3]; more than 20 µM in assay [4]; 15.4 µM in assay [5].
On to `COc1ccc(C(=O)C2=C3OC(C)(C)[C@@H](CC=C(C)C)C[C@@]34C[C@@H](CC=C(C)C)C(C)(C)[C@@](CC=C(C)C)(C2=O)C4=O)cc1O`, for which the IC50 in assay [1] is 14.5 µM; in assay [2], more than 20 µM; in assay [3], 13.4 µM; in assay [4], more than 20 µM; in assay [5], 10.9 µM.
In the case of `CC(=O)Oc1ccc(C(=O)C2=C3OC(C)(C)[C@@H](CC=C(C)C)C[C@@]34C[C@@H](CC=C(C)C)C(C)(C)[C@H]3CCC(C)(C)O[C@]34OC2=O)cc1OC(C)=O`, the half-maximal inhibitory concentration (IC50) in assay [1] is more than 20 µM; in assay [2], 4.83 µM; in assay [3], more than 20 µM; in assay [4] it was 12.3 µM; in assay [5], 5.32 µM.
Take `CC(C)=CC[C@H]1C[C@@]23C[C@@H](CC=C(C)C)C(C)(C)[C@@](CC=C(C)C)(C(=O)C(C(=O)c4ccc(OC(=O)c5ccccc5)c(OC(=O)c5ccccc5)c4)=C2OC1(C)C)C3=O`: the IC50 in assay [1], in assay [2], in assay [3], in assay [4] and in assay [5] was more than 20 µM each time.
Take `C=CC(=O)Oc1ccc(C(=O)C2=C3OC(C)(C)[C@@H](CC=C(C)C)C[C@@]34C[C@@H](CC=C(C)C)C(C)(C)[C@@](CC=C(C)C)(C2=O)C4=O)cc1OC(=O)C=C`: the IC50 in assay [1] was more than 20 µM; in assay [2] it was 4 µM; in assay [3], more than 20 µM; in assay [4] it was 13.7 µM; in assay [5] it was 10.1 µM.
Take `CC(C)=CC[C@H]1C[C@@]23C[C@@H](CC=C(C)C)C(C)(C)[C@@](CC=C(C)C)(C(=O)C(C(=O)c4ccc(O)c(OC(=O)c5ccccc5)c4)=C2OC1(C)C)C3=O`: the IC50 turned out to be 13.8 µM in assay [1]; 9.99 µM in assay [2]; 9.51 µM in assay [3]; 9.33 µM in assay [4]; 6.17 µM in assay [5].
For the compound `CC(C)=CC[C@H]1C[C@@]23C[C@@H](CC=C(C)C)C(C)(C)[C@@](CC=C(C)C)(C(=O)C(C(=O)c4ccc(OCc5ccccc5)c(OCc5ccccc5)c4)=C2OC1(C)C)C3=O`, the IC50 in assay [1] was more than 20 µM; in assay [2], 15.1 µM; in assay [3], more than 20 µM; in assay [4], more than 20 µM; in assay [5], 10.6 µM.
In the case of `C=CCOc1ccc(C(=O)C2=C3OC(C)(C)[C@@H](CC=C(C)C)C[C@@]34C[C@@H](CC=C(C)C)C(C)(C)[C@@](CC=C(C)C)(C2=O)C4=O)cc1O`, the IC50 is more than 20 µM in assay [1]; 11.5 µM in assay [2]; more than 20 µM in assay [3]; more than 20 µM in assay [4]; 15 µM in assay [5].
In the case of `C=C(C)[C@@H](CC=C(C)C)C[C@@]12C[C@@H](CC=C(C)C)C(C)(C)[C@@](CC=C(C)C)(C(=O)c3c1oc1cc(O)c(O)cc1c3=O)C2=O`, the IC50 in assay [1] was 10.4 µM; in assay [2], more than 20 µM; in assay [3], 4.5 µM; in assay [4], more than 20 µM; in assay [5], more than 20 µM.
As to `CC(C)=CCOc1ccc(C(=O)C2=C3OC(C)(C)[C@@H](CC=C(C)C)C[C@@]34C[C@@H](CC=C(C)C)C(C)(C)[C@@](CC=C(C)C)(C2=O)C4=O)cc1OCC=C(C)C`, the IC50 was more than 20 µM in assay [1]; more than 20 µM in assay [2]; more than 20 µM in assay [3]; 17.2 µM in assay [4]; more than 20 µM in assay [5].
For `CC(C)=CC[C@H]1C[C@@]23C[C@@H](CC=C(C)C)C(C)(C)[C@@](CC=C(C)C)(C(=O)C(C(=O)c4ccc(OCCCCCBr)c(O)c4)=C2OC1(C)C)C3=O`, the IC50 in assay [1] is more than 20 µM; in assay [2], 9.29 µM; in assay [3] it was more than 20 µM; in assay [4], more than 20 µM; in assay [5], 15.5 µM.
On to `CC(C)=CC[C@H]1C[C@@]23C[C@@H](CC=C(C)C)C(C)(C)[C@@](CC=C(C)C)(C(=O)C(C(=O)c4ccc(O)c(O)c4)=C2OC1(C)C)C3=O` [CAMBOGIN], for which the half-maximal inhibitory concentration (IC50) in assay [1] came out at 14.1 µM; in assay [2] it was 10.2 µM; in assay [3], 9.24 µM; in assay [4], 19.2 µM; in assay [5], 16.5 µM.
As to `CC(C)=CC[C@H]1C[C@@]23C[C@@H](CC=C(C)C)C(C)(C)[C@@](CC=C(C)C)(C(=O)C(C(=O)c4ccc(O)c(OC(=O)c5cccs5)c4)=C2OC1(C)C)C3=O`, the IC50 in assay [1] is 13.9 µM; in assay [2] it was more than 20 µM; in assay [3], 9.56 µM; in assay [4] it was more than 20 µM; in assay [5], 10.8 µM.
Regarding `CC(C)=CCOc1ccc(C(=O)C2=C3OC(C)(C)[C@@H](CC=C(C)C)C[C@@]34C[C@@H](CC=C(C)C)C(C)(C)[C@@](CC=C(C)C)(C2=O)C4=O)cc1O`, the IC50 in assay [1] is more than 20 µM; in assay [2], 18.6 µM; in assay [3] it was more than 20 µM; in assay [4], more than 20 µM; in assay [5] it was 12.2 µM.
As to `COc1ccc(C(=O)Oc2ccc(C(=O)C3=C4OC(C)(C)[C@@H](CC=C(C)C)C[C@@]45C[C@@H](CC=C(C)C)C(C)(C)[C@H]4CCC(C)(C)O[C@]45OC3=O)cc2OC(=O)c2ccc(OC)cc2)cc1`, the IC50 in assay [1], in assay [2], in assay [3], in assay [4] and in assay [5] was more than 20 µM in each case.
As for `CC(C)=CC[C@H]1C[C@@]23C[C@@H](CC=C(C)C)C(C)(C)[C@@](CC=C(C)C)(C(=O)C(C(=O)c4ccc(OC(=O)c5cccs5)c(OC(=O)c5cccs5)c4)=C2OC1(C)C)C3=O`, the IC50 in assay [1] is more than 20 µM; in assay [2] it was 16.5 µM; in assay [3] it was more than 20 µM; in assay [4] it was 20 µM; in assay [5], 8.8 µM.
Take `CCC(=O)Oc1cc(C(=O)C2=C3OC(C)(C)[C@@H](CC=C(C)C)C[C@@]34C[C@@H](CC=C(C)C)C(C)(C)[C@H]3CCC(C)(C)O[C@]34OC2=O)ccc1O`: the IC50 is 12.1 µM in assay [1], more than 20 µM in assay [2], 9.71 µM in assay [3] and more than 20 µM in assay [5].

Source of the values: ChEMBL document CHEMBL4382259, “Synthesis of novel guttiferone E and xanthochymol derivatives with cytotoxicities by inducing cell apoptosis and arresting the cell cycle phase” (Eur J Med Chem, 2019).
